pKi: −log10 of the molar value.
system: human σ1 receptor and human μ-opioid receptor; assay: Human σ1 receptor and human μ-opioid receptor radioligand binding assays, reported on one dual scale; parameters: key to μ and σ1 dual (binding expressed as Ki): +: Both Ki-μ and Ki-σ1>500 nM; ++: One Ki<500 nM while the other Ki is >=500 nM; +++: Both Ki-μ and Ki-σ1<500 nM; ++++: Both Ki-μ and Ki-σ1<100 nM; conditions: combined class for both receptors; [3H](+)-pentazocine on transfected HEK-293 membranes (σ1), [3H]-DAMGO on transfected CHO-K1 membranes (μ)
Description: Human σ1 Receptor Radioligand Assay
To investigate binding properties of test compounds to human σ1 receptor, transfected HEK-293 membranes and [^3H](+)-pentazocine (Perkin Elmer, NET-1056), as the radioligand, were used. The assay was carried out with 7 μg of membrane suspension, 5 nM of [^3H](+)-pentazocine in either absence or presence of either buffer or 10 μM Haloperidol for total and non-specific binding, respectively. Binding buffer contained Tris-HCl 50 mM at pH 8. Plates were incubated at 37° C. for 120 minutes. After the incubation period, the reaction mix was then transferred to MultiScreen HTS, FC plates (Millipore), filtered and plates were washed 3 times with ice-cold 10 mM Tris-HCL (pH7.4). Filters were dried and counted at approximately 40% efficiency in a MicroBeta scintillation counter (Perkin-Elmer) using EcoScint liquid scintillation cocktail
Human μ-Opioid Receptor Radioligand Assay
To investigate binding properties of test compounds to human μ-opioid receptor, transfected CHO-K1 cell membranes and [^3H]-DAMGO (Perkin Elmer, ES-542-C), as the radioligand, were used. The assay was carried out with 20 μg of membrane suspension, 1 nM of [^3H]-DAMGO in either absence or presence of either buffer or 10 μM Naloxone for total and non-specific binding, respectively. Binding buffer contained Tris-HCl 50 mM, MgCl2 5 mM at pH 7.4. Plates were incubated at 27° C. for 60 minutes. After the incubation period, the reaction mix was then transferred to MultiScreen HTS, FC plates (Millipore), filtered and plates were washed 3 times with ice-cold 10 mM Tris-HCL (pH 7.4). Filters were dried and counted at approximately 40% efficiency in a MicroBeta scintillation counter (Perkin-Elmer) using EcoScint liquid scintillation cocktail.

| Structure (SMILES) | μ and σ1 dual (binding expressed as Ki) |
| --- | --- |
| O=C1NCC2(CCN(Cc3ccccc3)CC2)c2ccccc21 [Example 1, 1′-Benzyl-2,3-dihydro-1H-spiro[isoquinoline-4,4′-piperidin]-1-one] | ++ |
| CN1CC2(CCN(Cc3ccccc3)CC2)c2ccccc2C1=O [Example 2, 1′-Benzyl-2-methyl-2,3-dihydro-1H-spiro[isoquinoline-4,4′-piperidin]-1-one] | ++ |
| CCN1CC2(CCN(Cc3ccccc3)CC2)c2ccccc2C1=O [Example 3, 1′-Benzyl-2-ethyl-2,3-dihydro-1H-spiro[isoquinoline-4,4′-piperidin]-1-one] | ++ |
| O=C1c2ccccc2C2(CCN(Cc3ccccc3)CC2)CN1CCO [Example 7, 1′-Benzyl-2-(2-hydroxyethyl)-2,3-dihydro-1H-spiro[isoquinoline-4,4′-piperidin]-1-one] | ++ |
| CC(=O)N1Cc2ccccc2C2(CCN(CCc3ccccc3)CC2)C1 [Example 10, 1-(1′-Phenethyl-1H-spiro[isoquinoline-4,4′-piperidine]-2(3H)-yl)ethanone] | ++ |
| O=C1c2ccccc2C2(CCN(CCc3ccccc3)CC2)CN1CCO [Example 11, 2-(2-Hydroxyethyl)-1′-phenethyl-2,3-dihydro-1H-spiro[isoquinoline-4,4′-piperidin]-1-one] | ++ |

same assay, conditions: combined class for both receptors; [3H](+)-pentazocine on transfected HEK-293 membranes (σ1), [3H]-DAMGO on transfected CHO-K1 membranes (μ); read-out: μ and σ1 dual (binding expressed as Ki)

| Structure (SMILES) | pKi |
| --- | --- |
| O=C1NCC2(CCN(CCc3ccccc3)CC2)c2ccccc21 [Example 4, 1′-Phenethyl-2,3-dihydro-1H-spiro[isoquinoline-4,4′-piperidin]-1-one] | > 6.30 |
| CN1CC2(CCN(CCc3ccccc3)CC2)c2ccccc2C1=O [Example 5, 2-Methyl-1′-phenethyl-2,3-dihydro-1H-spiro[isoquinoline-4,4′-piperidin]-1-one] | > 6.30 |
| CCN1CC2(CCN(CCc3ccccc3)CC2)c2ccccc2C1=O [Example 6, 2-ethyl-1′-phenethyl-2,3-dihydro-1H-spiro[isoquinoline-4,4′-piperidin]-1-one] | > 6.30 |
| c1ccc(CCN2CCC3(CC2)CNCc2ccccc23)cc1 [Example 8, 1′-Phenethyl-2,3-dihydro-1H-spiro[isoquinoline-4,4′-piperidine]] | > 6.30 |
| CN1Cc2ccccc2C2(CCN(CCc3ccccc3)CC2)C1 [Example 9, 2-Methyl-1′-phenethyl-2,3-dihydro-1H-spiro[isoquinoline-4,4′-piperidine]] | > 6.30 |

From patent US10508114B2, “Spiro-isoquinoline-4,4′-piperidine compounds having multimodal activity against pain” (ESTEVE PHARMACEUTICALS, S.A., priority 2015, dated 2019)
